{"source": "paper PMC10366102", "about": "“Dose escalation and expansion cohorts in patients with advanced breast cancer in a Phase I study of the CDK7-inhibitor samuraciclib” (Nature Communications, 2023)", "key": {"[1]": {"test_system": "tumour cell lines, including TNBC", "design": "method as in ref Patel et al, 2018 Ainscow et al, 2018; Clark et al, 2017, Ali et al, 2018", "settings": "wide range of tumour cell lines, ref Patel et al, 2018 Ainscow et al, Clark et al, 2017, Ali et al; cited from earlier work"}, "[2]": {"test_system": "phosphorylation of RNA Pol II, CDK1 and 2", "design": "method as in ref IB", "settings": "in vitro and in vivo, tumour and normal cells; ref IB; cited from earlier work"}, "[3]": {"test_system": "peripheral blood mononucleated cells", "test": "Antibody validation, flow cytometry of cells treated ex vivo, RNA pol II pSer5", "assay_type": "cell-based, human", "experimental": "SUPPLEMENTARY TABLE 12: ANTIBODIES USED\nAntibody Application Supplier & Description Dilution/ Validation […]\nRNA pol II Immunohistoche Abcam Rabbit Immuno- Immunohistochemistry: pSer5 mistry (Fig 3); ab193467 monoclonal histochemistry: Positive nuclear staining Flow cytometry [EPR19015] to 1 in 8000 in normal spleen\n(Supplementary RNA 0.02 µg/mL samples. Significant\nFigure 5) polymerase II reduction in staining in CTD repeat Flow cytometry: MCF7 cell line treated\nYSPTSPS 1 in 100 with samuraciclib. […]\nintensity of labelling in […]\npCDK1/2/ Immunohistoche Abcam Rabbit 1 in 500 Immunohistochemistry:\n3 mistry (Fig 3) ab201008 monoclonal 1.2 μg/mL Positive nuclear staining [EPR19546] to in normal tonsil samples.\nT161) + CDK2 staining in MCF7 cell\n(phospho T160) line treated with\nGoat anti- Flow cytometry Abcam Polyclonal goat 1 in 1000 Flow cytometry: No Rabbit IgG (Supplementary ab150077 anti-rabbit IgG 2.0 μg/mL significant binding to H&L Figure 5) H&L peripheral blood\nAlexaFluor conjugated to mononucleated cells in 488 AlexaFluor 488 absence of primary"}, "[4]": {"test_system": "CYP3A4", "design": "method as in ref IB", "settings": "separate assay, ref IB, cited from earlier work"}, "[5]": {"test_system": "patients with locally advanced and/or metastatic TNBC", "settings": "both, human, in vivo", "experimental": "A single arm expansion was conducted to refine the safety, tolerability, PK, and pharmacodynamic profiles of samuraciclib monotherapy (360 mg OD) in male or female patients with advanced TNBC. Patients with histological, radiological or cytological confirmation of metastasis or locally advanced TNBC not considered to be appropriate for further standard treatment, who had received at least 1 line of systemic anti-cancer therapy, and measurable disease according to the RECIST V1.1, were eligible.\nPatients underwent regular safety monitoring and 8-week scans reported using RECIST V1.1.\nModule 1B-1 was a cohort expansion to explore the safety, tolerability, PK and pharmacodynamic effects, and anti-tumor activity of samuraciclib when given as monotherapy to patients with advanced TNBC; participants were treated at a starting dose of 360 mg once daily (OD). The initial sample size was to be a maximum of 50 participants, of whom approximately 30 participants were to receive the CT7001 dosing regimen which was declared as the RP2D.\nModule 1B-1 included an interim efficacy analysis when 15 patients in the RP2D Population were evaluable for efficacy assessments. The Module 1B-1 TNBC expansion phase was designed using a 2-stage design. The null hypothesis for the ORR was 10% and this was tested against an alternative […]\npatients were to be recruited, and the […]. Otherwise, recruitment was to continue until up to a total of 30 evaluable patients were recruited and if ≥6/30 (20%) responses were observed, across both stages of the study, the null hypothesis was to be rejected. At the timepoint for the interim efficacy assessment, the requirement of 2 or more participants achieving a Response Evaluation Criteria in Solid Tumors (RECIST) PR had not been met, with only 1 participant in the first 15 evaluable participants achieving a PR. However, 8 out of 15 evaluable participants achieved SD, with 4 participants being treated for at least 16 weeks, which in this aggressive tumor type is of significant clinical note. Following discussion with the SRC it was agreed that further evaluable participants would be recruited into this expansion study.\nThe schedule of assessments for this study is provided in Supplementary Table 3. […]\nDuration of response (DoR) was defined as the time from documentation of tumor response to disease progression. Progression-free survival (PFS) was […]\ncause, whichever occurred first. Efficacy results were summarized descriptively and Kaplan -Meier plots provided where appropriate. […]\nreceived at least 1 dose of samuraciclib). These were summarized by Medical Dictionary for Regulatory […]\nadverse events (SAEs) were analyzed and reported separately. Details of any deaths were listed. All […]\nwere listed individually by patient and summarized descriptively. For urinalysis parameters, any […]\npositive. Abnormal physical examina tion findings were listed."}}, "note": "Where two headings read alike, the source gives them in different places.", "data": [{"smiles": "CC(C)c1cnn2c(NCc3ccccc3)cc(NC[C@H]3CCNC[C@@H]3O)nc12", "note": "[samuraciclib, Samuraciclib]", "values": [{"measurement": "Cell growth inhibition", "setting": "[1]", "result": "broad activity"}, {"measurement": "Phosphorylation of RNA Pol II, CDK1 and 2", "setting": "[2]", "result": "inhibits the phosphorylation"}, {"measurement": "RNA pol II pSer5 intensity of labelling", "setting": "[3]", "result": "Significant reduction in"}, {"measurement": "IC50", "setting": "[4]; midazolam as substrate", "result": "[…]"}, {"measurement": "IC50", "setting": "[4]; testosterone as substrate", "result": "[…]"}, {"measurement": "ALT increased; All AEs", "setting": "[5]", "result": "0 patients (%)"}, {"measurement": "ALT increased; Grade ≥3", "setting": "[5]", "result": "0 patients (%)"}, {"measurement": "AST increased; All AEs", "setting": "[5]", "result": "0 patients (%)"}, {"measurement": "AST increased; Grade ≥3", "setting": "[5]", "result": "0 patients (%)"}, {"measurement": "Abdominal pain upper; All AEs", "setting": "[5]", "result": "0 patients (%)"}, {"measurement": "Abdominal pain upper; Grade ≥3", "setting": "[5]", "result": "0 patients (%)"}, {"measurement": "Abdominal pain; All AEs", "setting": "[5]", "result": "6 (26.1) patients (%)"}, {"measurement": "Abdominal pain; Grade ≥3", "setting": "[5]", "result": "0 patients (%)"}, {"measurement": "Anemia; All AEs", "setting": "[5]", "result": "0 patients (%)"}, {"measurement": "Anemia; Grade ≥3", "setting": "[5]", "result": "1 (4.3) patients (%)"}, {"measurement": "Any treatment-emergent AE; All AEs", "setting": "[5]", "result": "23 (100.0) patients (%)"}, {"measurement": "Any treatment-emergent AE; Grade ≥3", "setting": "[5]", "result": "10 (43.5) patients (%)"}, {"measurement": "Back pain; All AEs", "setting": "[5]", "result": "0 patients (%)"}, {"measurement": "Back pain; Grade ≥3", "setting": "[5]", "result": "0 patients (%)"}, {"measurement": "Constipation; All AEs", "setting": "[5]", "result": "7 (30.4) patients (%)"}, {"measurement": "Constipation; Grade ≥3", "setting": "[5]", "result": "0 patients (%)"}, {"measurement": "Cough; All AEs", "setting": "[5]", "result": "3 (13.0) patients (%)"}, {"measurement": "Cough; Grade ≥3", "setting": "[5]", "result": "0 patients (%)"}, {"measurement": "Decreased appetite; All AEs", "setting": "[5]", "result": "3 (13.0) patients (%)"}, {"measurement": "Decreased appetite; Grade ≥3", "setting": "[5]", "result": "0 patients (%)"}, {"measurement": "Diarrhea; All AEs", "setting": "[5]", "result": "21 (91.3) patients (%)"}, {"measurement": "Diarrhea; Grade ≥3", "setting": "[5]", "result": "3 (13.0) patients (%)"}, {"measurement": "Discontinued samuraciclib due to related AEs", "setting": "[5]", "result": 4.3, "unit": "%"}, {"measurement": "Dizziness; All AEs", "setting": "[5]", "result": "0 patients (%)"}, {"measurement": "Dizziness; Grade ≥3", "setting": "[5]", "result": "0 patients (%)"}, {"measurement": "Dysgeusia; All AEs", "setting": "[5]", "result": "0 patients (%)"}, {"measurement": "Dysgeusia; Grade ≥3", "setting": "[5]", "result": "0 patients (%)"}, {"measurement": "Dysphagia; All AEs", "setting": "[5]", "result": "0 patients (%)"}, {"measurement": "Dysphagia; Grade ≥3", "setting": "[5]", "result": "0 patients (%)"}, {"measurement": "Dyspnea; All AEs", "setting": "[5]", "result": "0 patients (%)"}, {"measurement": "Dyspnea; Grade ≥3", "setting": "[5]", "result": "0 patients (%)"}, {"measurement": "Fatigue; All AEs", "setting": "[5]", "result": "11 (47.8) patients (%)"}, {"measurement": "Fatigue; Grade ≥3", "setting": "[5]", "result": "1 (4.3) patients (%)"}, {"measurement": "Headache; All AEs", "setting": "[5]", "result": "0 patients (%)"}, {"measurement": "Headache; Grade ≥3", "setting": "[5]", "result": "0 patients (%)"}, {"measurement": "Hyperglycemia; All AEs", "setting": "[5]", "result": "0 patients (%)"}, {"measurement": "Hyperglycemia; Grade ≥3", "setting": "[5]", "result": "0 patients (%)"}, {"measurement": "Hypocalcaemia; All AEs", "setting": "[5]", "result": "0 patients (%)"}, {"measurement": "Hypocalcaemia; Grade ≥3", "setting": "[5]", "result": "0 patients (%)"}, {"measurement": "Hypokalaemia; All AEs", "setting": "[5]", "result": "0 patients (%)"}, {"measurement": "Hypokalaemia; Grade ≥3", "setting": "[5]", "result": "0 patients (%)"}, {"measurement": "Nausea; All AEs", "setting": "[5]", "result": "22 (95.7) patients (%)"}, {"measurement": "Nausea; Grade ≥3", "setting": "[5]", "result": "1 (4.3) patients (%)"}, {"measurement": "Rash; All AEs", "setting": "[5]", "result": "0 patients (%)"}, {"measurement": "Rash; Grade ≥3", "setting": "[5]", "result": "0 patients (%)"}, {"measurement": "Stomatitis; All AEs", "setting": "[5]", "result": "3 (13.0) patients (%)"}, {"measurement": "Stomatitis; Grade ≥3", "setting": "[5]", "result": "1 (4.3) patients (%)"}, {"measurement": "Taste disorder; All AEs", "setting": "[5]", "result": "0 patients (%)"}, {"measurement": "Taste disorder; Grade ≥3", "setting": "[5]", "result": "0 patients (%)"}, {"measurement": "Upper respiratory tract infection; All AEs", "setting": "[5]", "result": "3 (13.0) patients (%)"}, {"measurement": "Upper respiratory tract infection; Grade ≥3", "setting": "[5]", "result": "0 patients (%)"}, {"measurement": "Urinary tract infection; All AEs", "setting": "[5]", "result": "0 patients (%)"}, {"measurement": "Urinary tract infection; Grade ≥3", "setting": "[5]", "result": "0 patients (%)"}, {"measurement": "Vomiting; All AEs", "setting": "[5]", "result": "14 (60.9) patients (%)"}, {"measurement": "Vomiting; Grade ≥3", "setting": "[5]", "result": "2 (8.7) patients (%)"}, {"measurement": "Weight decreased; All AEs", "setting": "[5]", "result": "0 patients (%)"}, {"measurement": "Weight decreased; Grade ≥3", "setting": "[5]", "result": "0 patients (%)"}]}]}
